# Data: paper PMC4545913, “Dual EZH2 and EHMT2 histone methyltransferase inhibition increases biological efficacy in breast cancer cells” (Clinical Epigenetics, 2015)
# Key:
# [1] = test system: MDA-MB-231 cells; experiment: Clonogenic growth assay; format: cell-based; conditions: Homo sapiens; MDA-MB-231, 48 h treatment then 12 days in fresh media
# Description: (§1) For clonogenic assays, cells were treated with compound for 48 h, media were removed and replaced with fresh media for a further 12 days to measure colony formation. For cell viability assays, lymphoma cells were plated at 20,000 cells in 200 μl per well in U-bottom 96 well plates in RPMI medium +20 % FCS. Cells were re-suspended 48 h later, diluted 10-fold in PBS + propidium iodide (PI) and the concentration of PI negative cells was counted using an Attune flow cytometer with autosampler. Breast cancer cells were seeded at a density of 10,000 cells/well in a sterile 96 clear-well plate with 150 μl of DMEM (+10 % FCS and 2 mM L-Glutamine). Each compound treatment was performed in triplicate for 72 h at concentrations of 100 nM and 1, 5, 10 and 50 μM in 100 μl of full-medium. After 72 h, 20 μl of MTT solution (3 mg of MTT Formazan, Sigma/1 ml PBS) was added to the medium and incubated for 4 h at 37 °C in a CO2 incubator. The MTT-product was solubilised with 100 μl DMSO, and for 1 h, incubated in the dark at room temperature. The optical density was read at 570 nm with PHERAstar.
# [2] = test system: FBXO32; experiment: qRT-PCR of FBXO32 mRNA in MDA-MB-231 cells; format: cell-based; conditions: for fold induction at 10 µM: MDA-MB-231, single dose 10 μM; for Change in FBXO32 mRNA level: MDA-MB-231, 48 h, single agents 1–15 μM, combination UNC0638 at 7.5 μM with increasing doses of GSK343
# Description: (§2) Following compound treatment of MDA-MB-231 for 48 h (in 6-well plates), media was removed and 1.5 ml of TRIzol (Invitrogen) was added directly to lyse cells and RNA was isolated according to the manufacturer’s instructions. Reverse transcription was done using the SuperScript III First-Strand Synthesis System (Invitrogen) according to the manufacturer’s instructions. Each measurement was done in triplicate, and the List of Primers can be found in Additional file 2: Table S1. For normalisation, we have used GAPDH and RNA pol II. Experiments were also done with the ‘Fast Sybr Green Cell-to-CT™-Kit’ according to the manufacturer’s instructions (Applied Biosystem). Fifteen thousand cells per 96 well were plated, and after 24 h, treated with compounds at various concentrations.
# (§3) For qRT-PCR measurements the 2x iQ SYBR Green Supermix (Bio-Rad), 200nM Primers and 0.4μl of cDNA /per 20μl reaction was used. The measurement was done in low-white 96-well plates (Bio-Rad) on a CFX96 Real-time System/C1000 Thermal Cycler (Bio-Rad) with the following protocol: 95°C for 3’; 95°C for 10’’, 56°C for 10’’, 72°C for 30’’ 42 cycles followed by a melting curve from 72°C to 95°C.
# [3] = test system: KRT17; experiment: qRT-PCR of KRT17 mRNA in MDA-MB-231 cells; format: cell-based; conditions: for fold induction at 10 µM: MDA-MB-231, single dose 10 μM; for Change in KRT17 mRNA level: MDA-MB-231, 48 h, single agents 1–15 μM, combination UNC0638 at 7.5 μM with increasing doses of GSK343
# Description: as §2, §3
# [4] = test system: MDA-MB-231 cells; experiment: MTT cell viability assay; format: cell-based; conditions: for IC50: Homo sapiens
# Description: Fig. 1 MTT and mRNA levels in MDA-MB-231 cells after pharmacological inhibition and siRNA knockdown of EZH2 and EHMT2(G9a), individually and in combination. a Expression levels of KRT17, FBX032, JMJD3, EZH2, SPINK1 and EHMT2 were measured by qRT-PCR in the MDA-MB-231 cell line 48 h after transfection with siRNAs targeting EZH2 and EHMT2, both individually and in combination. All measurements were normalised to the fold-change (relative to GAPDH) in the mock transfection control. Error bars represent the mean ± SD of experiment performed in technical triplicate. b Expression levels of KRT17, FBX032, JMJD3 and SPINK1 were measured by qRT-PCR in the MDA-MB-231 cell line treated for 48 h with GSK343, UNC0638, and UNC0638 (at 7.5 μM) with increasing doses of GSK343. Each group has been compared to the untreated sample following normalisation to GAPDH. Error bars represent the mean ± SD of experiment performed in technical triplicate. c MTT assay for cell viability of MDA-MB-231 cells after treatment. MDA-MB-231 cells were seeded in 96 well plates. After 24 h, increasing doses of GSK343, UNC0638 or combination treatments (1, 2.5, 5, 7.5, 10 and 15 μM) were added to cells. Control was media with 0.5 % DMSO. Cell viability was measured by MTT assay after a 48-h treatment and a 24-h proliferation period. Error bars represent the mean ± SEM of five independent repeats
# as §1
# [5] = test system: JMJD3; experiment: qRT-PCR of JMJD3 mRNA in MDA-MB-231 cells; format: cell-based; conditions: for fold induction at 10 µM: MDA-MB-231, single dose 10 μM; for Change in JMJD3 mRNA level: MDA-MB-231, 48 h, single agents 1–15 μM, combination UNC0638 at 7.5 μM with increasing doses of GSK343
# Description: as §2, §3
# [6] = test system: EZH2; experiment: qRT-PCR of EZH2 mRNA in MDA-MB-231 cells; format: cell-based; conditions: Homo sapiens, 48 h, normalised against GAPDH, read-out: EZH2 RNA level, fold increase compared to the mock treated sample; for fold induction at 10 µM: MDA-MB-231, single dose 10 μM
# Description: as §2, §3
# [7] = test system: DOHH2; experiment: Lymphoma cell growth, cell counting following propidium iodide staining; format: cell-based; conditions: Homo sapiens, DOHH-2, EZH2 W.T., 48 h, PI negative cell count
# Description: as §1
# [8] = test system: SUDLH8; experiment: as above; format: cell-based; conditions: EZH2 W.T. (amplified), 48 h, PI negative cell count
# Description: as §1
# [9] = test system: WILL1; experiment: as above; format: cell-based; conditions: WILL-1, EZH2 W.T., 48 h, PI negative cell count
# Description: as §1
# [10] = test system: SC1; experiment: as above; format: cell-based; conditions: Homo sapiens, SC-1, EZH2 W.T., 48 h, PI negative cell count
# Description: as §1
# [11] = test system: DB; experiment: as above; format: cell-based; conditions: Homo sapiens, EZH2 Mutant Y646N, 48 h, PI negative cell count
# Description: as §1
# [12] = test system: WSU-FSCLL; experiment: as above; format: cell-based; conditions: EZH2 W.T., 48 h, PI negative cell count
# Description: as §1
# [13] = test system: H3K27me3 and H3K9me3; experiment: Western analysis of global histone marks in MDA-MB-231 cells; format: cell-based; conditions: range of doses
# Description: MDA-MB-231 cells seeded in 6 well plates at a cell density of 3 x 10^5 were treated with HKMTI-1-005 (1–7.5uM) for 48 h. Following lysis in Triton Extraction Buffer (TEB, PBS containing 0.5 % Triton ×100 (v/v), 1/1000 protease inhibitor), nuclei were re-suspended in 0.2 N HCL at a density of 4 x 10^7 nuclei per millilitre and incubated overnight at 4 °C to acid-extract the histones, before being centrifuged at 6500g for 10 min at 4 °C. Protein concentration was determined using the Bradford assay. H3K27me3, H3K9me3, H3K9me2, H3K9me and total H3 protein expression levels in the histone extract samples were determined using Western blot analysis using H3K27me3 (1:1000; Abcam), H3K9me3 (1:1000; Abcam), H3K9me (1:1000) and H3 (1:2000; Abcam) antibodies. After washing, the membrane was incubated with a horseradish peroxidase-labelled secondary antibody (1 h, room temperature). The membrane was incubated for 1 min with 5 mL of Pierce ECL Western blotting substrate (Thermo Scientific). Images were captured using Konica Minolta SRX101A Tabletop X-Ray film processor.
# [14] = test system: SPINK1; experiment: qRT-PCR of SPINK1 mRNA in MDA-MB-231 cells; format: cell-based; conditions: for Change in SPINK1 mRNA level: MDA-MB-231, 48 h, single agents 1–15 μM, combination UNC0638 at 7.5 μM with increasing doses of GSK343; for SPINK1 expression upon treatment: MDA-MB-231, multiple doses and time points
# Description: as §2, §3
# [15] = molecular target: trimeric PRC2 complex (EZH2:EED:SUZ12) (Homo sapiens, UniProt O75530+Q15022+Q15910); experiment: PRC2 enzymatic assay (SPA-type), biotinylated-H3 (21–44) peptide substrate; format: biochemical; conditions: EZH2:EED:SUZ12, biotinylated-H3 (21–44) peptide substrate
# From the text: A trimeric PRC2 complex (EZH2:EED:SUZ12) was employed in this assay, along with a biotinylated-H3 (21–44) peptide substrate. […] Since the peptide substrates used in these assays are poor models for the complex and dynamic structure of the chromatin substrate in cells and since the only minimal number of PRC2 proteins (EZH2:EED:SUZ12) required for enzymatically active EZH2 were employed in the PRC2 assay, care should be taken in the over interpretation of this in vitro inhibitory data.
# [16] = test system: EZH2; conditions: cited from earlier work
# [17] = Homo sapiens, 48 h, normalised against GAPDH, read-out: FBXO32 RNA level, fold increase compared to the mock treated sample
# [18] = Homo sapiens, 48 h, normalised against GAPDH, read-out: KRT17 RNA level, fold increase compared to the mock treated sample
# [19] = MDA-MB-231 (Table 2), read-out: Cell viability (MTT) IC50
# [20] = Homo sapiens, 48 h, normalised against GAPDH, read-out: JMJD3 RNA level, fold increase compared to the mock treated sample
# trimeric PRC2 complex (EZH2:EED:SUZ12), sequence (Q15910 whole entry): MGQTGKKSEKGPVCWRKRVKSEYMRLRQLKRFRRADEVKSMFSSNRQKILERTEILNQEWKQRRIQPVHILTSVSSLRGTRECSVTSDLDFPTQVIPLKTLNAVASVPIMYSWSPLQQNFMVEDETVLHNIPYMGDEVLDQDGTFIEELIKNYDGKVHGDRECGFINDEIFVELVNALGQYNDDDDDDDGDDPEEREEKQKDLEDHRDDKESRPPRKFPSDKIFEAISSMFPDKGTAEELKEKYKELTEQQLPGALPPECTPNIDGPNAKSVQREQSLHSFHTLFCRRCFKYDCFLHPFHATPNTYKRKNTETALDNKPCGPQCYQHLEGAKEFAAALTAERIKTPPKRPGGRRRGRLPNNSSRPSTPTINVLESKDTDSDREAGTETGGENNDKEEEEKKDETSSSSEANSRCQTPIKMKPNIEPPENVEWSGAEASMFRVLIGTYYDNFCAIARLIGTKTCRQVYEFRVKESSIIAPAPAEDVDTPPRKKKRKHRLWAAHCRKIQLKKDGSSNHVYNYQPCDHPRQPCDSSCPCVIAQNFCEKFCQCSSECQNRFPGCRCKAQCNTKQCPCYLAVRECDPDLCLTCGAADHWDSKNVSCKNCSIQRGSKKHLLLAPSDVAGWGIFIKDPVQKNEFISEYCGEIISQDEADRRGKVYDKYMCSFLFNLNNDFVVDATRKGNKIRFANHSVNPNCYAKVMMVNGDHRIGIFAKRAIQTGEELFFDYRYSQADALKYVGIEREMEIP
# trimeric PRC2 complex (EZH2:EED:SUZ12), sequence (O75530 whole entry partner): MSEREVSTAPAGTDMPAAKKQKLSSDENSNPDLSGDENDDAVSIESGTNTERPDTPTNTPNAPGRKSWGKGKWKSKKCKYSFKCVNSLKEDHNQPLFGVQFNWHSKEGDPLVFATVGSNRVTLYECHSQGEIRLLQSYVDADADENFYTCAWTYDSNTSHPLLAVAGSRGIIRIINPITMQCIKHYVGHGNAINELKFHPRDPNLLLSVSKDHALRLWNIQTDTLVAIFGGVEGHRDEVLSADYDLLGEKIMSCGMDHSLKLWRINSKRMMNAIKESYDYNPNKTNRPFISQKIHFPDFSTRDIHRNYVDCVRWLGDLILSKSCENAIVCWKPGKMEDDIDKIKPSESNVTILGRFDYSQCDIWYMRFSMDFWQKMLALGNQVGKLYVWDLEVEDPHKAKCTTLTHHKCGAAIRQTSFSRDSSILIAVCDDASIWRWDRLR
# trimeric PRC2 complex (EZH2:EED:SUZ12), sequence (Q15022 whole entry partner): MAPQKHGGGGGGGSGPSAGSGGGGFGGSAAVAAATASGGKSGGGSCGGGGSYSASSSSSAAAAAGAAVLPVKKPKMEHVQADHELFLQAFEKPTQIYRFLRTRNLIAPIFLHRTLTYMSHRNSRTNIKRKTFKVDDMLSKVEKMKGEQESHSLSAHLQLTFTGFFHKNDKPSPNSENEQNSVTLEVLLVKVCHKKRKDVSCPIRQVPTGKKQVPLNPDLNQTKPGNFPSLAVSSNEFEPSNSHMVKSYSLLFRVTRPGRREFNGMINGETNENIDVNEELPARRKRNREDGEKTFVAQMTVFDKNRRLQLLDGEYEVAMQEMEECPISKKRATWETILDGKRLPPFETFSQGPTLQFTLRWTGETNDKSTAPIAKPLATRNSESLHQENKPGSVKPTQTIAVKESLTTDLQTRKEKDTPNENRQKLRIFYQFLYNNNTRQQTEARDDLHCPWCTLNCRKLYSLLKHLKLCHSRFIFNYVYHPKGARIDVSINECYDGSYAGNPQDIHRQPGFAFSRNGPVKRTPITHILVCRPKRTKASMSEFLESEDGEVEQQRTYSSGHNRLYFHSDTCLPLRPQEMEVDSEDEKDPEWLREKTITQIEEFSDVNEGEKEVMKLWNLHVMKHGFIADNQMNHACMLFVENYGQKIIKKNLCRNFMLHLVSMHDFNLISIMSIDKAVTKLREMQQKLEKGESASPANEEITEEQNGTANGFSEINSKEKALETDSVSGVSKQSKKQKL
smiles,measurement,setting,value
"COc1cc2nc(N3CCCN(C)CC3)nc(NC3CCN(Cc4ccccc4)CC3)c2cc1OC [BIX01294, reference compound]",IC50,[1],1.4 µM
same,fold induction at 10 µM,[2]; [17],3.34
same,fold induction at 10 µM,[3]; [18],1.06
same,IC50,[4]; [19],9.6 µM
same,fold induction at 10 µM,[5]; [20],2.7
same,fold induction at 10 µM,[6],0.87
"CCCc1cc(C)[nH]c(=O)c1CNC(=O)c1cc(-c2ccnc(N3CCN(C)CC3)c2)cc2c1cnn2C(C)C [GSK343, reference compound]",IC50,[1],> 50 µM
same,IC50,[7],6.15 µM
same,IC50,[8],5.11 µM
same,IC50,[9],17.9 µM
same,IC50,[10],12.1 µM
same,IC50,[11],< 1 µM
same,IC50,[12],2.87 µM
same,Global levels of H3K27me3 and H3K9me3 (Western),[13],minor decrease
same,fold induction at 10 µM,[2]; [17],1.2
same,Change in FBXO32 mRNA level,[2],little change
same,fold induction at 10 µM,[3]; [18],0.9
same,Change in KRT17 mRNA level,[3],little change
same,IC50,[4]; [19],> 15 µM
same,Effect on cell viability,"[4]; MDA-MB-231, MTT, up to 15 μM, 48-h treatment and 24-h proliferation period",no significant reduction in cell viability
same,fold induction at 10 µM,[5]; [20],1
same,Change in JMJD3 mRNA level,[5],little change
same,Change in SPINK1 mRNA level,[14],little change
same,fold induction at 10 µM,[6],1
COc1cc2nc(NCCCN(C)C)nc(NC3CCN(Cc4ccccc4)CC3)c2cc1OC [HKMTI-1-002],fold induction at 10 µM,[2]; [17],1.12
same,fold induction at 10 µM,[3]; [18],0.66
same,fold induction at 10 µM,[5]; [20],1.57
same,fold induction at 10 µM,[6],0.86
COc1cc2nc(N3CCN(c4ccccn4)CC3)nc(NC3CCN(Cc4ccccc4)CC3)c2cc1OC [HKMTI-1-011],IC50,[15],12 µM
same,SPINK1 expression upon treatment,[14],increased
COc1cc2nc(N3CCCC(CO)C3)nc(NC3CCN(C)CC3)c2cc1OC (stereo not drawn) [HKMTI-1-012],fold induction at 10 µM,[2]; [17],1.06
same,fold induction at 10 µM,[3]; [18],1.32
same,fold induction at 10 µM,[5]; [20],0.9
same,fold induction at 10 µM,[6],1.38
COc1cc2nc(N3CCCN(C)CC3)nc(NCc3ccccn3)c2cc1OC [HKMTI-1-013],fold induction at 10 µM,[2]; [17],0.93
same,fold induction at 10 µM,[3]; [18],0.78
same,fold induction at 10 µM,[5]; [20],0.87
same,fold induction at 10 µM,[6],0.13
COc1cc2nc(N3CCCCC3)nc(NC3CCN(Cc4ccccc4)CC3)c2cc1OC [HKMTI-1-022],IC50,[15],16 µM
same,SPINK1 expression upon treatment,[14],increased
"COc1cc2c(NC3CCN(C(C)C)CC3)nc(C3CCCCC3)nc2cc1OCCCN1CCCC1 [UNC0638, reference compound]",IC50,[1],1.1 µM
same,Global levels of H3K27me3 and H3K9me3 (Western),[13],minor decrease
same,EZH2 inhibition in biochemical assays,[16],not to significantly inhibit EZH2
same,fold induction at 7.5 µM,"[2]; Homo sapiens, 48 h, MDA-MB-231, single dose 7.5 μM, normalised against GAPDH, read-out: FBXO32 RNA level, fold increase compared to the mock treated sample",5.5
same,Change in FBXO32 mRNA level,[2],dose-dependent upregulation
same,fold induction at 7.5 µM,"[3]; Homo sapiens, 48 h, MDA-MB-231, single dose 7.5 μM, normalised against GAPDH, read-out: KRT17 RNA level, fold increase compared to the mock treated sample",1.1
same,Change in KRT17 mRNA level,[3],not significantly altered
same,IC50,[4]; [19],8.2 µM
same,IC50,"[4]; MDA-MB-231, MTT, 48-h treatment and 24-h proliferation period (Fig. 1c), read-out: Cell viability IC50 (calculated)",9 µM
same,fold induction at 7.5 µM,"[5]; Homo sapiens, 48 h, MDA-MB-231, single dose 7.5 μM, normalised against GAPDH, read-out: JMJD3 RNA level, fold increase compared to the mock treated sample",3.4
same,Change in JMJD3 mRNA level,[5],dose-dependent upregulation
same,Change in SPINK1 mRNA level,[14],not significantly altered
same,fold induction at 7.5 µM,"[6]; MDA-MB-231, single dose 7.5 μM",0.4
COc1cc2c(NC3CCN(C(C)C)CC3)nc(N3CCC(F)(F)CC3)nc2cc1OCCCN1CCCC1 [UNC0642],EZH2 inhibition in biochemical assays,[16],not to significantly inhibit EZH2
